14 compounds from patent US4782151A, “Polyprenyl compound and pharmaceutical use” (Eisai Co., Ltd., priority 1984, dated 1988) can be followed below.

The test system of data set [1] is Pyloric Ligation Ulcer. In words: Effect on Pyloric Ligation Ulcer. The class given is in vivo, Wistar strain male rats. Further details: key to Grade Index G.I. mean ± S.E.: ulcer grade 0–V by eye; larger = more ulcers, V = perforation. As to the method: According to the method of Shay et al. described in Gastroenterology, Vol 5, p. 43 (1945), Wistar strain male rats each weighing about 300 g were not given any diet for 48 hours, and then their pyloric segments were ligated. After 15 hours, the abdomen of each of the rats was opened, and the stomach was excised. The stomach was cut open along the side of the greater curvature, and the ulcers developed on the fore-stomach were classified and evaluated with the naked eye into five stages. The larger ulcer index means the more ulcers and index V refers to an example of perforation. The medicines were evaluated by determining their mean ±standard error. […] Cimetidine and propantheline were selected as control medicines.
(Note) In Table 2, Grade Index was evaluated on the basis of the size,
number, and severity of ulcers.

In data set [2] the test system is gastric acid secretion. In words: Gastric acid secretion inhibiting effect (pylorus-ligated rats, method of Shay). Type of data set: in vivo, Wistar strain male rats. The settings on record: for inhibition in vivo at 100 mg/kg: Rattus norvegicus, 100 mg/μg (so in the source), to the duodenum during pyloric ligation, 4 hours, vs control group. Here is the method: According to the method of H. Shay et a. described in Gastroenterology, Vol. 5, p. 43 (1945), Wistar strain male rats each weighing about 200 g were not given any diet for 24 hours, and their pyloric segments were ligated under etherization. After four hours, the stomachs were excised under deep etherization, and the contents of the stomachs were collected. After determination of the amount, the gastric juice was centrifuged at 3,000 rpm for 10 minutes and the supernatant liquid was titrated by neutralization (at a pH 7.0) with N/50-NaOH by means of an automatic titrator (TTA 81, Radiometer, Copenhagen) to determine the acidity. The amount of the acid which had been secreted for four hours was calculated from the volume of the gastric juice and the acidity. The results are represented in terms of % inhibition with respect to the control group. Each of the compounds tested was emulsified in a 25% decaglyn mixture (polyglycerin fatty acid ester), and 100 mg/μg (dose 0.2 ml/100 g weight) was administered to the duodenum during the ligation of the pyloric segment. In the control group, only the solvent was administered.

The subject of data set [3] is Ethanol-Induced Ulcer. The experiment in a line: Effect on Ethanol-Induced Ulcer. The class given is in vivo, Wistar male rats. As to the method: According to the method of Robert et al., 1 ml/rat of absolute ethanol was administered orally to each of Wistar male rats. After one hour, the stomach of each rat was excised, 10 ml of physiologically saline solution was injected into the stomach, and the stomach was soaked in 5% neutral formalin. Each stomach was cut open along the side of the greater curvature, and the ulcers developed on the glandular stomach were measured for their lengths and the total sum of the lengths was defined as ulcer index.
Compound B, i.e. N-(2,6,10,14-tetramethyl-18-oxo-2,6,10,14-nonadecatetraenoyl)diethylamine,and compound F, i.e. N-(2,6,10,14-tetramethyl-18-oxo-2,6,10,14-nonadecatetraenoyl)pyrrolidine, were selected as test compounds and emulsified in 2.5% decaglyn mixture, and 12.5 to 100 mg/kg (dose volume 0.2 ml/100 g-weight) was administered orally 30 minutes before administration of ethanol.

Data set [4] can be described thus: in vivo. The settings on record: mouse, po.
Setting [5] is: 100 mg/kg, 15 hours after pylorus ligation.
Where [6] appears, read: 100 mg/kg, N 4 (Compound B), N 10 (Cimetidine).
[7] abbreviates: 12.5 mg/kg orally 30 minutes before ethanol.
Where [8] appears, read: 25 mg/kg orally 30 minutes before ethanol.
Where [9] appears, read: 50 mg/kg orally 30 minutes before ethanol.
[10] abbreviates: 100 mg/kg orally 30 minutes before ethanol.

As to `CN/C(=N/CCSCc1nc[nH]c1C)NC#N` [Cimetidine, reference compound], the “Grade Index G.I. mean ± S.E.” value in data set [1] (setting [5]) is 3.3 ± 0.7. In data set [1] (setting [6]), the “Grade Index 0 (number of animals)” value is 2, the “Grade Index I (number of animals)” value is reported as 0, the “Grade Index II (number of animals)” value turned out to be 1 and the “Grade Index III (number of animals)” value was 2. In addition, in data set [1] (setting [6]), the “Grade Index IV (number of animals)” value turned out to be 0 and the “Grade Index V (number of animals; perforation)” value (“Grade Index V” below) stood at 5.
As to `CC(=O)CCC=C(C)CCC=C(C)CCC=C(C)CCC=C(C)C(=O)N1CCOCC1` [Compound A], 100 mg/kg produced 52.9% inhibition in vivo in data set [2].
With `CCN(CC)C(=O)C(C)=CCCC(C)=CCCC(C)=CCCC(C)=CCCC(C)=O` [Compound B, N-(2,6,10,14-tetramethyl-18-oxo-2,6,10,14-nonadecatetraenoyl)diethylamine], the “Grade Index 0 (number of animals)” value stood at 2 in data set [1] (25 mg/kg, N 6); 2 in data set [1] (50 mg/kg, N 6); 4 in data set [1] (setting [6]); 4 in data set [1] (200 mg/kg, N 4). The “Grade Index I (number of animals)” value in data set [1] (25 mg/kg, N 6) turned out to be 1; in data set [1] (50 mg/kg, N 6), 3; in data set [1] (setting [6]), 0; in data set [1] (200 mg/kg, N 4) it was 0. Moreover, the “Grade Index II (number of animals)” value is on record as 2 in data set [1] (25 mg/kg, N 6); 0 in data set [1] (50 mg/kg, N 6); 0 in data set [1] (setting [6]); 0 in data set [1] (200 mg/kg, N 4). The “Grade Index III (number of animals)” value in data set [1] (25 mg/kg, N 6) is 0; in data set [1] (50 mg/kg, N 6) it was 0; in data set [1] (setting [6]), 0; in data set [1] (200 mg/kg, N 4), 0. For the same compound, the “Grade Index IV (number of animals)” value in data set [1] (25 mg/kg, N 6) was 0; in data set [1] (50 mg/kg, N 6), 0; in data set [1] (setting [6]), 0; in data set [1] (200 mg/kg, N 4), 0. Besides, the “Grade Index V” value in data set [1] (25 mg/kg, N 6) was 1; in data set [1] (50 mg/kg, N 6), 1; in data set [1] (setting [6]), 0; in data set [1] (200 mg/kg, N 4), 0. Besides, the “Grade Index G.I. mean ± S.E.” value came out at 1.7 ± 0.7 in data set [1] (25 mg/kg, to the duodenum during pylorus ligation, 15 hours); 1.3 ± 0.8 in data set [1] (50 mg/kg, to the duodenum during pylorus ligation, 15 hours); 0.0 ± 0.0 in data set [1] (setting [5]); 0.0 ± 0.0 in data set [1] (200 mg/kg, to the duodenum during pylorus ligation, 15 hours). The “Inhibition (%) of ulcer index” value in data set [3] (setting [7]) is listed as 82.6%; in data set [3] (setting [8]), 97.6%; in data set [3] (setting [9]) it was 90.4%; in data set [3] (setting [10]) it was 97.8%. The “Ulcer Index Mean ± S.E. (mm)” value was found to be 10.1 ± 5.9 mm in data set [3] (setting [7]), 1.4 ± 1.0 mm in data set [3] (setting [8]), 5.6 ± 2.9 mm in data set [3] (setting [9]) and 1.3 ± 1.0 mm in data set [3] (setting [10]). In data set [2], this compound yielded an inhibition in vivo at 100 mg/kg of 83.5%. In addition, the “action of inhibiting acid secretion (in words)” value in data set [2] (rat, in vivo) is “powerful action of inhibiting acid secretion”.
As for `CCNC(=O)C(C)=CCCC(C)=CCCC(C)=CCCC(C)=CCCC(C)=O` [Compound C], the inhibition in vivo at 100 mg/kg in data set [2] turned out to be 63.2%.
In turn, `CC(=O)CCC=C(C)CCC=C(C)CCC=C(C)CCC=C(C)C(=O)N(C)C` [Compound D] came in with an LD50 in data set [4] of more than 5000 mg/kg. In addition, testing at 100 mg/kg in data set [2] gave an inhibition in vivo of 52.6%.
In the case of `CC(=O)CCC=C(C)CCC=C(C)CCC=C(C)CCC=C(C)C(=O)N(CCO)CCO` [Compound E], the inhibition in vivo at 100 mg/kg in data set [2] worked out at 52.2%.
In data set [4], `CC(=O)CCC=C(C)CCC=C(C)CCC=C(C)CCC=C(C)C(=O)N1CCCC1` [Compound F, N-(2,6,10,14-tetramethyl-18-oxo-2,6,10,14-nonadecatetraenoyl)pyrrolidine] came in with an LD50 of more than 5000 mg/kg. In addition, the “Inhibition (%) of ulcer index” value was found to be 63.2% in data set [3] (setting [7]), 94.8% in data set [3] (setting [8]), 85.7% in data set [3] (setting [9]) and 97.1% in data set [3] (setting [10]). Also, the “Ulcer Index Mean ± S.E. (mm)” value amounted to 21.4 ± 8.2 mm in data set [3] (setting [7]), 3.0 ± 1.9 mm in data set [3] (setting [8]), 8.3 ± 3.4 mm in data set [3] (setting [9]) and 1.7 ± 0.9 mm in data set [3] (setting [10]). This compound also came in with an inhibition in vivo at 100 mg/kg in data set [2] of 76.1%.
As to `CC(=O)CCC=C(C)CCC=C(C)CCC=C(C)CCC=C(C)C(=O)n1ccnc1` [Compound H], the inhibition in vivo at 100 mg/kg in data set [2] came to 49.1%.
Regarding `CC(=O)CCC=C(C)CCC=C(C)CCC=C(C)CCC=C(C)C(=O)N1CC=CC1` [Compound I], 100 mg/kg produced 43.9% inhibition in vivo in data set [2].
In data set [2], `CC(=O)CCC=C(C)CCC=C(C)CCC=C(C)CCC=C(C)CNC(C)=O` [Compound J] had an inhibition in vivo at 100 mg/kg of 53%.
On the same count and under the same terms, the value for `CCC(=O)NCC(C)=CCCC(C)=CCCC(C)=CCCC(C)=CCCC(C)=O` [Compound K] was 50.2%.
Turning to `CCN(CC(C)=CCCC(C)=CCCC(C)=CCCC(C)=CCCC(C)=O)C(C)=O` [Compound L], the inhibition in vivo at 100 mg/kg in data set [2] is 62.6%.
Same read-out and setting: the value for `CCOC(=O)C=C(C)CCC=C(C)CCC=C(C)CCC=C(C)C(=O)N(CC)CC` [Compound M] was 80.6%.
On to `CC(C)[N+](C)(CCOC(=O)C1c2ccccc2Oc2ccccc21)C(C)C` [Propantheline bromide, reference compound], for which, in data set [1] (30 mg/kg, N 10), the “Grade Index 0 (number of animals)” value is reported as 8, the “Grade Index I (number of animals)” value stood at 2, the “Grade Index II (number of animals)” value came to 0 and the “Grade Index III (number of animals)” value turned out to be 0. Besides, in data set [1] (30 mg/kg, N 10), the “Grade Index IV (number of animals)” value is listed as 0 and the “Grade Index V” value turned out to be 0. Further, in data set [1] (30 mg/kg, 15 hours after pylorus ligation), the “Grade Index G.I. mean ± S.E.” value was 0.2 ± 0.1.

A word on the inhibition in vivo: it is the drop in the measured response relative to a control, in per cent. As a reminder, the LD50 is the dose expected to kill half of the subjects tested.
